Laboratory results reported in US20260258032A1, “TYROSINE KINASE 2 INHIBITORS AND USES THEREOF” (BIOGEN MA INC., priority 2022, published 2026).
Where a name gives a salt, the structure may show the parent alone.

Biological target: T1, JH2 domain of human Tyk2 (Homo sapiens, UniProt P29597)
T1 construct: 10×His-tagged TYK2 JH2 domain (amino acid 575-876)
Test: JH2 biochemical assay (TR-FRET probe displacement)
Format: binding
Conditions: JH2 biochemical assay
Experimental: The inhibitory potency of compounds of the disclosure against the kinase activity of recombinantly generated JH2 domain of human Tyk2 was evaluated in a plate-based assay using a TR-FRET assay platform. Briefly, 2 nM of recombinant JH2 domain [10×His-tagged TYK2 JH2 domain (amino acid 575-876)] was combined with 2 nM probe ((S)-6-amino-9-(2-carboxy-4-((1-(3-(8-methyl-5-(methylamino)-8H-imidazo[4,5-d]thiazolo[5,4-b]pyridin-2-yl)phenyl)ethyl)carbamoyl)phenyl)-3-iminio-5-sulfo-3H-xanthene-4-sulfonate), 0.1 nM Tb-labeled anti-His antibody, and compounds of disclosure for 60 minutes. Compounds are tested at either […] top concentration, 10 points of 3-fold dilution. The TR-FRET signal […] by compounds and signal was calculated by taking the ratio of fluorescence at 520 nm and 495 nm. The data was normalized and the percent activity versus log concentration of compound was fitted with a 4-parameter logistic model to generate IC50 curves.

T1 sequence (P29597 575-876): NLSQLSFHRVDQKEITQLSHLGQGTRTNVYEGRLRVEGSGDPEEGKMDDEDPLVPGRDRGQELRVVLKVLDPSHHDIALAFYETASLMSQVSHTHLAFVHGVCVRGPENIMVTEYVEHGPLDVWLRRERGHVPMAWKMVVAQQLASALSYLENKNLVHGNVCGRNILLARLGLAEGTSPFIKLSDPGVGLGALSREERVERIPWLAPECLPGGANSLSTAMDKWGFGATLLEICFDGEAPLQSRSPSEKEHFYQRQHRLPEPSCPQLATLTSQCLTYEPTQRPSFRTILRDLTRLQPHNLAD

| SMILES | IC50 [nM] |
| --- | --- |
| CC(=O)Nc1cc2c(cn1)C1(CC1)CN2c1cc(O[C@@H]2COC[C@H]2F)nc(C(C)(F)F)n1 (racemic) [Example 150, Trans-rac-N-(1′-(2-(1,1-difluoroethyl)-6-(((3RS,4R)-4-fluorotetrahydrofuran-3-yl)oxy)pyrimidin-4-yl)-1′,2′-dihydrospiro[cyclopropane-1,3′-pyrrolo[3,2-c]pyridin]-6′-yl)acetamide trifluoroacetate] | 10 to 100 |
| CC(=O)Nc1cc2c(cn1)C1(CC1)CN2c1ccnc(C2COC2)n1 [Example 3, N-(1′-(2-(oxetan-3-yl)pyrimidin-4-yl)-1′,2′-dihydrospiro[cyclopropane-1,3′-pyrrolo[3,2-c]pyridin]-6′-yl)acetamide] | 10 to 100 |
| CC(=O)Nc1cc2c(cn1)C1(CC1)CN2c1cc(NC(C)=O)nc(C(C)(F)F)n1 [Example 15, N-(1′-(6-acetamido-2-(1,1-difluoroethyl)pyrimidin-4-yl)-1′,2′-dihydrospiro[cyclopropane-1,3′-pyrrolo[3,2-c]pyridin]-6′-yl)acetamide] | ≤ 10 |
| CC(=O)Nc1cc2c(cn1)C1(CC1)CN2c1cc(C)ncn1 [Example 27, N-(1′-(6-methylpyrimidin-4-yl)-1′,2′-dihydrospiro[cyclopropane-1,3′-pyrrolo[3,2-c]pyridin]-6′-yl)acetamide] | 10 to 100 |
| CC(=O)Nc1cc2c(cn1)C1(CC1)CN2c1cc(C)nc2cc(C)nn12 [Example 28, N-(1′-(2,5-dimethylpyrazolo[1,5-a]pyrimidin-7-yl)-1′,2′-dihydrospiro[cyclopropane-1,3′-pyrrolo[3,2-c]pyridin]-6′-yl)acetamide] | ≥ 1000 |
| CC(=O)Nc1cc2c(cn1)CCN2c1ccnc(C(C)(F)F)n1 [Example 30, N-(1-(2-(1,1-difluoroethyl)pyrimidin-4-yl)-2,3-dihydro-1H-pyrrolo[3,2-c]pyridin-6-yl)acetamide] | 100 to 1000 |
| CC(=O)Nc1cc2c(cn1)CCN2c1cccc(C2CCOC2)n1 (stereo not drawn) [Example 33, N-(1-(6-(tetrahydrofuran-3-yl)pyridin-2-yl)-2,3-dihydro-1H-pyrrolo[3,2-c]pyridin-6-yl)acetamide] | 10 to 100 |
| CC(=O)Nc1cc2c(cn1)C1(CC1C)CN2c1nccc(C(C)(F)F)n1 (stereo not drawn) [Example 36, N-(1′-(4-(1,1-difluoroethyl)pyrimidin-2-yl)-2-methyl-1′,2′-dihydrospiro[cyclopropane-1,3′-pyrrolo[3,2-c]pyridin]-6′-yl)acetamide] | 10 to 100 |
| CC(=O)Nc1cc2c(cn1)C1(CCC1)CN2c1nccc(C(C)(F)F)n1 [Example 40, N-(1′-(4-(1,1-difluoroethyl)pyrimidin-2-yl)-1′,2′-dihydrospiro[cyclobutane-1,3′-pyrrolo[3,2-c]pyridin]-6′-yl)acetamide] | 10 to 100 |
| CC(=O)Nc1cc2c(cn1)C1(CCCC1)CN2c1nccc(C(C)(F)F)n1 [Example 43, N-(1′-(4-(1,1-difluoroethyl)pyrimidin-2-yl)-1′,2′-dihydrospiro[cyclopentane-1,3′-pyrrolo[3,2-c]pyridin]-6′-yl)acetamide] | 100 to 1000 |
| CC(=O)Nc1cc2c(cn1)C1(CCCC1)CN2c1ccnc(C(C)(F)F)n1 [Example 44, N-(1′-(2-(1,1-difluoroethyl)pyrimidin-4-yl)-1′,2′-dihydrospiro[cyclopentane-1,3′-pyrrolo[3,2-c]pyridin]-6′-yl)acetamide] | 100 to 1000 |
| CC(=O)Nc1cc2c(cn1)C1(CCCC1)CN2c1cccc(C(C)(F)F)n1 [Example 45, N-(1′-(6-(1,1-difluoroethyl)pyridin-2-yl)-1′,2′-dihydrospiro[cyclopentane-1,3′-pyrrolo[3,2-c]pyridin]-6′-yl)acetamide] | 100 to 1000 |
| CC(=O)Nc1cc2c(cn1)C1(CCOCC1)CN2c1nccc(C(C)(F)F)n1 [Example 46, N-(1′-(4-(1,1-difluoroethyl)pyrimidin-2-yl)-1′,2,2′,3,5,6-hexahydrospiro[pyran-4,3′-pyrrolo[3,2-c]pyridin]-6′-yl)acetamide] | ≥ 1000 |
| CC(=O)Nc1cc2c(cn1)C1(CCOCC1)CN2c1ccnc(C(C)(F)F)n1 [Example 47, N-(1′-(2-(1,1-difluoroethyl)pyrimidin-4-yl)-1′,2,2′,3,5,6-hexahydrospiro[pyran-4,3′-pyrrolo[3,2-c]pyridin]-6′-yl)acetamide] | ≥ 1000 |
| CC(=O)Nc1cc2c(cn1)C1(CCOCC1)CN2c1cccc(C(C)(F)F)n1 [Example 48, N-(1′-(6-(1,1-difluoroethyl)pyridin-2-yl)-1′,2,2′,3,5,6-hexahydrospiro[pyran-4,3′-pyrrolo[3,2-c]pyridin]-6′-yl)acetamide] | 100 to 1000 |
| CC(=O)Nc1cc2c(cn1)C1(CC1)CN2c1cc(C)nc(C)n1 [Example 68, N-(1′-(2,6-dimethylpyrimidin-4-yl)-1′,2′-dihydrospiro[cyclopropane-1,3′-pyrrolo[3,2-c]pyridin]-6′-yl)acetamide] | 10 to 100 |
| CC(=O)Nc1cc2c(cn1)C1(CC1)CN2c1nccs1 [Example 77, N-(1′-(thiazol-2-yl)-1′,2′-dihydrospiro[cyclopropane-1,3′-pyrrolo[3,2-c]pyridin]-6′-yl)acetamide trifluoroacetate] | 100 to 1000 |
| CC(=O)Nc1cc2c(cn1)C1(CC1)CN2c1ncc(C)s1 [Example 78, N-(1′-(5-methylthiazol-2-yl)-1′,2′-dihydrospiro[cyclopropane-1,3′-pyrrolo[3,2-c]pyridin]-6′-yl)acetamide trifluoroacetate] | 10 to 100 |
| CC(=O)Nc1cc2c(cn1)C1(CC1)CN2c1cc(C)nc(C2CC3CCC2O3)n1 (stereo not drawn) [Example 102, N-(1′-(2-(7-oxabicyclo[2.2.1]heptan-2-yl)-6-methylpyrimidin-4-yl)-1′,2′-dihydrospiro[cyclopropane-1,3′-pyrrolo[3,2-c]pyridin]-6′-yl)acetamide trifluoroacetate] | 10 to 100 |
| CC(=O)Nc1cc2c(cn1)C1(CC1)CN2c1cc(C)nc(C2CCCN(C)C2)n1 (stereo not drawn) [Example 117, N-(1′-(6-methyl-2-(1-methylpiperidin-3-yl)pyrimidin-4-yl)-1′,2′-dihydrospiro[cyclopropane-1,3′-pyrrolo[3,2-c]pyridin]-6′-yl)acetamide] | ≥ 1000 |
| CC(=O)Nc1cc2c(cn1)C1(CC1)CN2c1cc(C)nc(C2CCCCN2C)n1 (stereo not drawn) [Example 118, N-(1′-(6-methyl-2-(1-methylpiperidin-2-yl)pyrimidin-4-yl)-1′,2′-dihydrospiro[cyclopropane-1,3′-pyrrolo[3,2-c]pyridin]-6′-yl)acetamide] | ≥ 1000 |
| CC(=O)Nc1cc2c(cn1)C1(CC1)CN2c1cc(C)nc(C2CCN(C(C)C)CC2)n1 [Example 121, N-(1′-(2-(1-isopropylpiperidin-4-yl)-6-methylpyrimidin-4-yl)-1′,2′-dihydrospiro[cyclopropane-1,3′-pyrrolo[3,2-c]pyridin]-6′-yl)acetamide] | ≥ 1000 |
| COC(C)c1nccc(N2CC3(CC3)c3cnc(NC(C)=O)cc32)n1 (stereo not drawn) [Example 131, N-(1′-(2-(1-methoxyethyl)pyrimidin-4-yl)-1′,2′-dihydrospiro[cyclopropane-1,3′-pyrrolo[3,2-c]pyridin]-6′-yl)acetamide] | 10 to 100 |
| COC(C)(C)c1nccc(N2CC3(CC3)c3cnc(NC(C)=O)cc32)n1 [Example 132, N-(1′-(2-(2-methoxypropan-2-yl)pyrimidin-4-yl)-1′,2′-dihydrospiro[cyclopropane-1,3′-pyrrolo[3,2-c]pyridin]-6′-yl)acetamide] | 10 to 100 |
| CC(=O)Nc1cc2c(cn1)C1(CC1)CN2c1cc(C)[nH]c(=O)n1 [Example 134, N-(1′-(6-methyl-2-oxo-1,2-dihydropyrimidin-4-yl)-1′,2′-dihydrospiro[cyclopropane-1,3′-pyrrolo[3,2-c]pyridin]-6′-yl)acetamide] | ≥ 1000 |
| CC(=O)Nc1cc2c(cn1)C1(CC1)CN2c1nc(C)cc(=O)[nH]1 [Example 135, N-(1′-(4-methyl-6-oxo-1,6-dihydropyrimidin-2-yl)-1′,2′-dihydrospiro[cyclopropane-1,3′-pyrrolo[3,2-c]pyridin]-6′-yl)acetamide] | ≥ 1000 |
| CCN1CC(Oc2cc(N3CC4(CC4)c4cnc(NC(C)=O)cc43)nc(C(C)(F)F)n2)C1 [Example 148, N-(1′-(2-(1,1-difluoroethyl)-6-((1-ethylazetidin-3-yl)oxy)pyrimidin-4-yl)-1′,2′-dihydrospiro[cyclopropane-1,3′-pyrrolo[3,2-c]pyridin]-6′-yl)acetamide trifluoroacetate] | ≥ 1000 |
| CC(=O)Nc1cc2c(cn1)C1(CC1)CN2c1cc(C)nc(N2CC(C#N)(CF)C2)n1 [Example 218, N-(1′-(2-(3-cyano-3-(fluoromethyl)azetidin-1-yl)-6-methylpyrimidin-4-yl)-1′,2′-dihydrospiro[cyclopropane-1,3′-pyrrolo[3,2-c]pyridin]-6′-yl)acetamide] | ≤ 10 |
| COC1CCCN(c2nc(C)cc(N3CC4(CC4)c4cnc(NC(C)=O)cc43)n2)C1 (stereo not drawn) [Example 230, N-(1′-(2-(3-methoxypiperidin-1-yl)-6-methylpyrimidin-4-yl)-1′,2′-dihydrospiro[cyclopropane-1,3′-pyrrolo[3,2-c]pyridin]-6′-yl)acetamide] | 100 to 1000 |
| CC(=O)Nc1cc2c(cn1)C1(CC1)CN2c1cc(C)cc(-c2cn(C)nc2C(F)(F)F)n1 [Example 261, N-(1′-(4-methyl-6-(1-methyl-3-(trifluoromethyl)-1H-pyrazol-4-yl)pyridin-2-yl)-1′,2′-dihydrospiro[cyclopropane-1,3′-pyrrolo[3,2-c]pyridin]-6′-yl)acetamide trifluoroacetate] | ≥ 1000 |
